Tests used:
[1] = system: chickweed; experiment: Test C postemergence; format: in vivo, Stellaria media
Method in brief: (§1)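 Preemergence: seeds sown in a loam soil–sand blend and sprayed with test chemical in a non-phytotoxic solvent mixture containing surfactant. Postemergence: plants at 2 to 18 cm (1- to 4-leaf stage) in peat-based medium, treated with the same formulation. Greenhouse 13 to 15 days, then visual rating 0 (no effect) to 100 (complete control).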

[2] = system: giant foxtail; experiment: Test A preemergence; format: in vivo, Setaria faberii
Method in brief: (§2)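 Greenhouse pot test, loam/sand soil. Formulation: non-phytotoxic solvent mix plus surfactant. Pre: directed spray onto soil after sowing. Post: plants at 1–2 leaf, 2–10 cm. Rated visually vs untreated controls at ~10 d, 0 (no effect) to 100 (complete control).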

[3] = system: Italian ryegrass; experiment: Test C preemergence; format: in vivo, Lolium multiflorum
From the text: Seeds of plant species selected from blackgrass (Alopecurus myosuroides), Italian ryegrass (Lolium multiflorum), wheat, winter (winter wheat, Triticum aestivum), galium (catchweed bedstraw, Galium aparine), corn (Zea mays), large (Lg) crabgrass (Digitaria sanguinalis), giant foxtail (Setaria faberii), johnsongrass (Sorghum halepense), lambsquarters (Chenopodium album), morningglory (Ipomoea coccinea), yellow nutsedge (Cyperus esculentus), pigweed (Amaranthus retroflexus), ragweed (common ragweed, Ambrosia elatior), soybean (Glycine max), barnyardgrass (Echinochloa crus-galli), oilseed rape (Brassica napus), waterhemp (common waterhemp, Amaranthus rudis), kochia (Kochia scoparia), wild oat (Avena fatua), surinam grass (Brachiaria decumbens), foxtail, green (green foxtail, Setaria viridis), goosegrass (Eleusine indica), bromegrass, downy (downy bromegrass, Bromus tectorum), nightshade (eastern black nightshade, Solanum ptycanthum), cocklebur (common cocklebur, Xanthium strumarium), cupgrass, woolly (woolly cupgrass, Eriochloa villosa), bermudagrass (Cynodon dactylon), sunflower, (common oilseed sunflower, Helianthus annuus), Russian thistle (Salsola kali), and velvetleaf (Abutilon theophrasti) were planted into a blend of loam soil and sand and treated preemergence with test chemicals formulated in a non-phytotoxic solvent mixture which included a surfactant.
At the same time, plants selected from these crop and weed species and also barley, winter (winter barley, Hordeum vulgare), windgrass (Apera spica-venti), chickweed (common chickweed, Stellaria media), deadnettle (henbit deadnettle, Lamium amplexicaule), and canarygrass (littleseed canarygrass, Phalaris minor) were planted in pots containing Redi-Earth® planting medium (Scotts Company, 14111 Scottslawn Road, Marysville, Ohio 43041) comprising spaghnum peat moss, vermiculite, wetting agent and starter nutrients and treated with postemergence applications of test chemicals formulated in the same manner. Plants ranged in height from 2 to 18 cm (1- to 4-leaf stage) for postemergence treatments. Treated plants and controls were maintained in a greenhouse for 13 to 15 days, after which time all species were compared to controls and visually evaluated. Plant response ratings, summarized in Table C, are based on a scale of 0 to 100 where 0 is no effect and 100 is complete control. A dash (-) response means no test result.

[4] = system: wheat; experiment: Test A postemergence; format: in vivo, Triticum aestivum
Method in brief: as §2

[5] = system: morningglory; experiment: Test A preemergence; format: in vivo, Ipomoea spp.
Method in brief: as §2

[6] = system: wheat, winter; experiment: Test C postemergence; format: in vivo, Triticum aestivum
Method in brief: as §1

[7] = system: velvetleaf; experiment: Test A postemergence; format: in vivo, Abutilon theophrasti
Method in brief: as §2

[8] = system: pigweed; experiment: Test A preemergence; format: in vivo, Amaranthus retroflexus
Method in brief: as §2

[9] = system: large (Lg) crabgrass; experiment: Test C preemergence; format: in vivo, Digitaria sanguinalis
Method in brief: as §1

[10] = system: barnyardgrass; experiment: Test B flooded paddy test; format: in vivo, Echinochloa crus-galli; conditions: Flood, 250 g ai/ha, 0 to 100 scale where 0 is no effect and 100 is complete control
Method in brief: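 Plants were grown to the 2-leaf stage, then pots were flooded to 3 cm above the soil and compounds were applied directly into the paddy water. That depth was held throughout, and after 13 to 15 days in the greenhouse injury was rated visually against controls on a 0–100 scale (0 no effect, 100 complete control).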

[11] = system: kochia; experiment: Test C postemergence; format: in vivo, Kochia scoparia
Method in brief: as §1

[12] = system: wild oat; experiment: Test C postemergence; format: in vivo, Avena fatua
Method in brief: as §1

[13] = 16 g ai/ha, postemergence, 0 is no effect, 100 is complete control
[14] = 31 g ai/ha, postemergence, visual rating, scale 0 to 100 (0 no effect, 100 complete control), 13 to 15 days
[15] = 125 g ai/ha, postemergence, visual rating, scale 0 to 100 (0 no effect, 100 complete control)
[16] = Postemergence, 62 g ai/ha, scale 0 to 100 (0 no effect, 100 complete control)
[17] = 125 g ai/ha, 0 to 100 scale where 0 is no effect and 100 is complete control
[18] = 500 g ai/ha, 0 to 100 scale where 0 is no effect and 100 is complete control
[19] = 16 g ai/ha, preemergence, scale 0 to 100 (0 no effect, 100 complete control)
[20] = 62 g ai/ha, preemergence, scale 0 (no effect) to 100 (complete control)
[21] = 125 g ai/ha, preemergence, scale 0 (no effect) to 100 (complete control)

Compound: Fc1cnc(Oc2cccc(C(F)F)c2-n2cc(C(F)(F)F)cn2)nc1 [Compound 164]
- Plant response rating (0 to 100), Chickweed [1, 13]: 45
- Chickweed plant response rating [1, 14]: 50
- Plant response rating, Chickweed [1, 15]: 90
- Plant response rating, Chickweed [1, 16]: 80
- Plant response rating, Foxtail, Giant [2, 17]: 90
- Foxtail, Giant plant response rating [2, 18]: 100
- Ryegrass, Italian plant response rating [3, 19]: 0
- Ryegrass, Italian plant response rating [3, 20]: 65
- Ryegrass, Italian plant response rating [3, 21]: 98
- Wheat plant response rating [4, 17]: 70
- Plant response rating, Wheat [4, 18]: 90
- Morningglory plant response rating (0 to 100 scale) ([5]; 125 g ai/ha): 80
- Morningglory plant response rating [5, 18]: 100
- Plant response rating (0 to 100), Wheat [6, 13]: 0
- Wheat plant response rating [6, 14]: 0
- Plant response rating, Wheat [6, 15]: 0
- Plant response rating, Wheat [6, 16]: 0
- Velvetleaf plant response rating [7, 17]: 100
- Plant response rating, Velvetleaf [7, 18]: 100
- Pigweed plant response rating (0 to 100 scale) ([8]; 125 g ai/ha): 100
- Pigweed plant response rating [8, 18]: 100
- Crabgrass, Large plant response rating [9, 19]: 75
- Crabgrass, Large plant response rating [9, 20]: 100
- Crabgrass, Large plant response rating [9, 21]: 100
- Plant response rating, Crabgrass, Large ([9]; Preemergence, 31 g ai/ha, scale 0 to 100, 0 no effect, 100 complete control): 85
- Plant response rating, Barnyardgrass [10]: 20
- Plant response rating (0 to 100), Kochia [11, 13]: 80
- Kochia plant response rating [11, 14]: 90
- Plant response rating, Kochia [11, 15]: 95
- Plant response rating, Kochia [11, 16]: 90
- Plant response rating (0 to 100), Oat, Wild [12, 13]: 0
- Oat, Wild plant response rating [12, 14]: 5
- Plant response rating, Oat, Wild [12, 15]: 15
- Plant response rating, Oat, Wild [12, 16]: 5

Compound: N#Cc1cccc(Oc2ncc(Cl)cn2)c1-n1cc(Br)cn1 [Compound 52, 2-(4-bromo-1H-pyrazol-1-yl)-3-[(5-chloro-2-pyrimidinyl)oxy]benzonitrile]
- pest or weed control at 125 g/ha ([1]; Stellaria media, post-emergence, 125 g ai/ha, postemergence, read-out: Plant response rating (0 to 100), Chickweed): 90%
- pest or weed control at 250 g/ha ([1]; Stellaria media, post-emergence, 250 g ai/ha, postemergence, read-out: Plant response rating (0 to 100), Chickweed): 95%
- pest or weed control at 31 g/ha ([1]; Stellaria media, post-emergence, Postemergence, 31 g ai/ha, scale 0 to 100 (0 no effect, 100 complete control), 13 to 15 days, read-out: Plant response rating, Chickweed): 40%
- pest or weed control at 62 g/ha ([1]; Stellaria media, post-emergence, Postemergence, 62 g ai/ha, scale 0 to 100 (0 no effect, 100 complete control), read-out: Plant response rating, Chickweed): 60%
- pest or weed control at 125 g/ha ([2]; Setaria faberi, pre-emergence, 240 h, 125 g ai/ha, 0 to 100 scale where 0 is no effect and 100 is complete control, read-out: Plant response rating, Foxtail, Giant): 100%
- pest or weed control at 500 g/ha ([2]; Setaria faberi, pre-emergence, 240 h, 500 g ai/ha, 0 to 100 scale, 0 no effect, 100 complete control, approx. 10 days, read-out: Foxtail, Giant plant response rating): 100%
- pest or weed control at 62 g/ha ([3]; Lolium multiflorum, pre-emergence, 62 g ai/ha, preemergence, scale 0 (no effect) to 100 (complete control), read-out: Ryegrass, Italian plant response rating): 55%
- pest or weed control at 125 g/ha ([3]; Lolium multiflorum, pre-emergence, 125 g ai/ha, preemergence, scale 0 (no effect) to 100 (complete control), read-out: Ryegrass, Italian plant response rating): 80%
- pest or weed control at 250 g/ha ([3]; Lolium multiflorum, pre-emergence, 250 g ai/ha, preemergence, scale 0 (no effect) to 100 (complete control), read-out: Ryegrass, Italian plant response rating): 90%
- pest or weed control at 31 g/ha ([3]; Lolium multiflorum, pre-emergence, Preemergence, 31 g ai/ha, scale 0 to 100, 0 no effect, 100 complete control, read-out: Plant response rating, Ryegrass, Italian): 5%
- plant injury at 125 g/ha ([4]; Triticum aestivum, post-emergence, 240 h, 125 g ai/ha, 0 to 100 scale where 0 is no effect and 100 is complete control, read-out: Plant response rating, Wheat): 40%
- plant injury at 500 g/ha ([4]; Triticum aestivum, post-emergence, 240 h, 500 g ai/ha, 0 to 100 scale, 0 no effect, 100 complete control, read-out: Plant response rating Wheat): 100%
- Plant response rating, Morningglory [5, 17]: 90
- pest or weed control at 500 g/ha ([5]; Ipomoea, pre-emergence, 240 h, 500 g ai/ha, 0 to 100 scale, 0 no effect, 100 complete control, approx. 10 days, read-out: Morningglory plant response rating): 100%
- plant injury at 125 g/ha ([6]; Triticum aestivum, post-emergence, 125 g ai/ha, postemergence, read-out: Plant response rating (0 to 100), Wheat): 5%
- plant injury at 250 g/ha ([6]; Triticum aestivum, post-emergence, 250 g ai/ha, postemergence, read-out: Plant response rating (0 to 100), Wheat): 5%
- plant injury at 31 g/ha ([6]; Triticum aestivum, post-emergence, Postemergence, 31 g ai/ha, scale 0 to 100 (0 no effect, 100 complete control), 13 to 15 days, read-out: Plant response rating, Wheat): 0%
- plant injury at 62 g/ha ([6]; Triticum aestivum, post-emergence, Postemergence, 62 g ai/ha, scale 0 to 100 (0 no effect, 100 complete control), read-out: Plant response rating, Wheat): 0%
- pest or weed control at 125 g/ha ([7]; Abutilon theophrasti, post-emergence, 240 h, 125 g ai/ha, 0 to 100 scale where 0 is no effect and 100 is complete control, read-out: Plant response rating, Velvetleaf): 100%
- pest or weed control at 500 g/ha ([7]; Abutilon theophrasti, post-emergence, 240 h, 500 g ai/ha, 0 to 100 scale, 0 no effect, 100 complete control, read-out: Plant response rating Velvetleaf): 100%
- pest or weed control at 125 g/ha ([8]; Amaranthus retroflexus, pre-emergence, 125 g ai/ha, 0 to 100 scale where 0 is no effect and 100 is complete control, read-out: Plant response rating, Pigweed): 100%
- pest or weed control at 500 g/ha ([8]; Amaranthus retroflexus, pre-emergence, 240 h, 500 g ai/ha, 0 to 100 scale, 0 no effect, 100 complete control, approx. 10 days, read-out: Pigweed plant response rating): 100%
- pest or weed control at 62 g/ha ([9]; Digitaria sanguinalis, pre-emergence, 62 g ai/ha, preemergence, scale 0 (no effect) to 100 (complete control), read-out: Crabgrass, Large plant response rating): 100%
- pest or weed control at 125 g/ha ([9]; Digitaria sanguinalis, pre-emergence, 125 g ai/ha, preemergence, scale 0 (no effect) to 100 (complete control), read-out: Crabgrass, Large plant response rating): 100%
- pest or weed control at 250 g/ha ([9]; Digitaria sanguinalis, pre-emergence, 250 g ai/ha, preemergence, scale 0 (no effect) to 100 (complete control), read-out: Crabgrass, Large plant response rating): 100%
- pest or weed control at 31 g/ha ([9]; Digitaria sanguinalis, pre-emergence, Preemergence, 31 g ai/ha, scale 0 to 100, 0 no effect, 100 complete control, read-out: Plant response rating, Crabgrass, Large): 100%
- pest or weed control at 250 g/ha ([10]; Echinochloa crus-galli, read-out: Plant response rating, Barnyardgrass): 30%
- pest or weed control at 125 g/ha ([11]; Bassia scoparia, post-emergence, 125 g ai/ha, postemergence, read-out: Plant response rating (0 to 100), Kochia): 90%
- pest or weed control at 250 g/ha ([11]; Bassia scoparia, post-emergence, 250 g ai/ha, postemergence, read-out: Plant response rating (0 to 100), Kochia): 95%
- pest or weed control at 31 g/ha ([11]; Bassia scoparia, post-emergence, Postemergence, 31 g ai/ha, scale 0 to 100 (0 no effect, 100 complete control), 13 to 15 days, read-out: Plant response rating, Kochia): 75%
- pest or weed control at 62 g/ha ([11]; Bassia scoparia, post-emergence, Postemergence, 62 g ai/ha, scale 0 to 100 (0 no effect, 100 complete control), read-out: Plant response rating, Kochia): 90%
- pest or weed control at 125 g/ha ([12]; Avena fatua, post-emergence, 125 g ai/ha, postemergence, read-out: Plant response rating (0 to 100), Oat, Wild): 10%
- pest or weed control at 250 g/ha ([12]; Avena fatua, post-emergence, 250 g ai/ha, postemergence, read-out: Plant response rating (0 to 100), Oat, Wild): 15%
- pest or weed control at 31 g/ha ([12]; Avena fatua, post-emergence, Postemergence, 31 g ai/ha, scale 0 to 100 (0 no effect, 100 complete control), 13 to 15 days, read-out: Plant response rating, Oat, Wild): 0%
- pest or weed control at 62 g/ha ([12]; Avena fatua, post-emergence, Postemergence, 62 g ai/ha, scale 0 to 100 (0 no effect, 100 complete control), read-out: Plant response rating, Oat, Wild): 5%
